From US20250115598A1 (Anaxis Pharma Pty Ltd, priority 2021, published 2025)
pIC50, pKd: −log10 of the molar value.

How the values were obtained:
endogenous MLKL in U937 = endogenous MLKL in U937 (Homo sapiens (Human), UniProt Q8NB16); test: Degradation assay: endogenous MLKL in U937 (western blot); conditions: U937, 24 h incubation, read-out: Degradation of endogenous MLKL in U937 (DC50 cell-based assay)
Procedure: Degradation Assay: Screening Compounds Procedure to Evaluate the Activity of Compounds in Degrading Endogenous MLKL in Human and Mouse Cell
The mouse dermal fibroblast (MDF) cell line was seeded the day before the experiment in a 24-well plate at a cell density of […] per well in a volume of 0.5 mL per well and left to attach overnight. The human monocyte cell line (U937) was seeded on the day of the experiment in a 24-well plate at a cell density of […] per well in a volume of 0.5 mL per well.
The compound was diluted in DMSO with a starting concentration of 10 mM and titrated stepwise with a dilution of 1:5. 0.5 μL of the compound dilution was added to the appropriate well to achieve a final concentration of 10; 2; 0.4; 0.08 and 0.016 μM. A DMSO only well was included as control.
The cells were incubated for 24 h in the presence of the compound at 37° C. and 10% CO2.
After the 24 h incubation period, the medium was removed and cells washed with 0.5 mL PBS. The cells were then lysed directly in 60 μL of 1×SDS gel loading buffer.
The cell lysate was heat-denatured at […] for 10 min. 10 μL of lysate per well were run on 18-well 4-15% Criterion TGX stain free gels (BIO-RAD). The proteins were then transferred onto nitrocellulose membrane with a wet transfer protocol in the Criterion Blotter (BIO-RAD).
Membranes were blocked with 5% skim milk in TBST. Primary antibody against MLKL (clone 3H1, MABC604 Merck) was used at 1:2000 dilution in TBST with 1% BSA and left shaking over night at 4° C. After washes with TBST, the membranes were incubated with goat anti-rat IgG HRP-conjugated antibody (Southern Biotech) in 1% skim milk TBST at 1:10000 dilution for 1 h at room temperature. After TBST washes the bands were imaged on the ChemiDoc MP Imaging System (BIO-RAD) with Immobilion Western Chemiluminescent HRP Substrate Forte (Millipore). The loading control GAPDH was probed for with rabbit anti-GAPDH (CST 14C10) at 1:2000 dilution in 1% BSA TBST over night at 4° C. TBST washes were followed by incubation with goat anti-rabbit IgG HRP-conjugated antibody (Southern Biotech) in 1% skim milk TBST at 1:10000 dilution for 1 h at room temperature followed by TBST washes. The signal was detected as described above.
The band intensity was measured in the ImageLab Software (BIO-RAD) and the MLKL values adjusted for loading with GAPDH. The percentage of degradation was calculated by normalizing the compound treated values to the DMSO only control.

human MLKL (full length) = human MLKL (full length) (Homo sapiens (Human), UniProt Q8NB16); test: KINOMEscan binding assay, human MLKL (full length); conditions: hMLKL, Table 25; read-out: MLKL (KD)
human MLKL (full length), sequence (Q8NB16 whole entry): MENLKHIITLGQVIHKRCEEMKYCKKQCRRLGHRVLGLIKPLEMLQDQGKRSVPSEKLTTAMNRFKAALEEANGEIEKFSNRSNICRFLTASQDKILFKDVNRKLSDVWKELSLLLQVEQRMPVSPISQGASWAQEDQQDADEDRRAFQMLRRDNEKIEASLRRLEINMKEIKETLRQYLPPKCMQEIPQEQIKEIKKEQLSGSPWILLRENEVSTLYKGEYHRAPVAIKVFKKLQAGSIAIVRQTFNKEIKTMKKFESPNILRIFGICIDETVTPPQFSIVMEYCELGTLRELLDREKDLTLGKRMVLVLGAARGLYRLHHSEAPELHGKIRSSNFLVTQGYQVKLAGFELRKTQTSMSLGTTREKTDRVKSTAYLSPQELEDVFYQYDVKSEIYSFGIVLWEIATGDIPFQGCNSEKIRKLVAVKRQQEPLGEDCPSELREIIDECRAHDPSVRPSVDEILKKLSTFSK
Summary of the method: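 In this assay, compounds displace DNA- or phage-tagged kinase from an immobilized ligand, and eluted kinase is quantified by qPCR.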

[1] = test system: Immortalised Mouse Dermal Fibroblasts (MDFs); test: Cellular assay: inhibition of TSI induced necroptosis, CellTitre-Glo viability; conditions: Mus musculus, Fibroblast; MDF, 3 hours TSI cocktail, Table 27; read-out: Inhibition of TSI-induced necroptosis (IC50 cell-based assay) in MDF
Summary of the method: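 Immortalised mouse dermal fibroblasts (2200 cells/well) pretreated 30 min with compound, 10-point 1:3 series from 36 μM, 0.3% DMSO. Then 3 h at 37° C. with TNF (100 ng/ml), Smac mimetic (500 nM) and IDN-6556 (10 μM). CellTiter-Glo luminescence normalised to DMSO (100%) and DMSO+TSI (0%); IC50 from 4-parameter logistic fit.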

endogenous MLKL in MDF = endogenous MLKL in MDF (Mus musculus (Mouse), UniProt Q9D2Y4); test: Degradation assay: endogenous MLKL in MDF (western blot); conditions: MDF cells, 24 h incubation with compound, MLKL adjusted for loading with GAPDH, normalized to DMSO only control, read-out: Degradation of endogenous MLKL in MDF (DC50 cell-based assay)
endogenous MLKL in MDF, sequence (Q9D2Y4 whole entry): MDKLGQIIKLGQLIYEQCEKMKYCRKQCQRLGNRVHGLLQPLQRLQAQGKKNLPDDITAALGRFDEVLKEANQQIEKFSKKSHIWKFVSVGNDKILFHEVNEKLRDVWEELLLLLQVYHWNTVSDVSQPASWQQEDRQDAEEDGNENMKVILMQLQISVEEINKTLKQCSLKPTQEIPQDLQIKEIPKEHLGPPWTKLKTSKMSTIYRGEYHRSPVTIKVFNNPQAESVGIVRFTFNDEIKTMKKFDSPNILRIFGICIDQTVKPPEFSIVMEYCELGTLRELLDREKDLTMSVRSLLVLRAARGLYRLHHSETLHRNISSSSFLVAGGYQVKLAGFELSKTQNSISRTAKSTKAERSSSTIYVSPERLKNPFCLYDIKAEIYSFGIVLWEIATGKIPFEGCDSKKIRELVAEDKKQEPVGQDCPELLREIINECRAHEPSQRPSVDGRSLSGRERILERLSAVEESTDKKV
Summary of the method: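 MDF (seeded the day before) or U937 cells were treated 24 h at 37 °C, 10% CO2 with compound at 10, 2, 0.4, 0.08 and 0.016 μM final. Endogenous MLKL was quantified by western blot (anti-MLKL 3H1), normalized to GAPDH. Percent degradation was taken relative to DMSO control.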

endogenous MLKL in U937, sequence (Q8NB16 whole entry): as the sequence (Q8NB16 whole entry) above

Compound	DC50 (endogenous MLKL in U937) [nM]	pKd (human MLKL (full length))	pIC50 [1]	DC50 (endogenous MLKL in MDF) [nM]
Cc1ncsc1-c1ccc(CNC(=O)[C@@H]2C[C@@H](O)CN2C(=O)[C@@H](NC(=O)CCOCCCn2cc(-c3cnc(N)c4c(-c5ccc(NS(=O)(=O)C(F)F)c(O[C@@H](C)c6ccc(F)cc6)c5)nn(C)c34)cn2)C(C)(C)C)cc1 [Compound 1040, (2S,4R)-1-[(2S)-2-{3-[3-(4-{4-amino-3-[4-(difluoromethanesulfonamido)-3-[(1S)-1-(4-fluorophenyl)ethoxy]phenyl]-1-methyl-1H-pyrazolo[4,3-c]pyridin-7-yl}-1H-pyrazol-1-yl)propoxy]propanamido}-3,3-dimethylbutanoyl]-4-hydroxy-N-{[4-(4-methyl-1,3-thiazol-5-yl)phenyl]methyl}pyrrolidine-2-carboxamide]	1000 to 10000	> 8.00		
Cc1ncsc1-c1ccc(CNC(=O)[C@@H]2C[C@@H](O)CN2C(=O)[C@@H](NC(=O)COCCOCC#Cc2cnc(N)c3c(-c4ccc(NS(=O)(=O)C(F)F)c(O[C@@H](C)c5ccc(F)cc5)c4)nn(C)c23)C(C)(C)C)cc1 [Compound 1075, (2S,4R)-1-[(2S)-2-(2-{2-[(3-{4-amino-3-[4-(difluoromethanesulfonamido)-3-[(1S)-1-(4-fluorophenyl)ethoxy]phenyl]-1-methyl-1H-pyrazolo[4,3-c]pyridin-7-yl}prop-2-yn-1-yl)oxy]ethoxy}acetamido)-3,3-dimethylbutanoyl]-4-hydroxy-N-{[4-(4-methyl-1,3-thiazol-5-yl)phenyl]methyl}pyrrolidine-2-carboxamide]	< 1000	> 8.00		
C[C@H](Oc1cc(-c2nn(C)c3c(C#CCCCCCCNC(=O)COc4cccc5c4C(=O)N(C4CCC(=O)NC4=O)C5=O)cnc(N)c23)ccc1NS(=O)(=O)C(F)F)c1ccc(F)cc1 (stereo partly drawn) [Compound 1097, N-(8-{4-amino-3-[4-(difluoromethanesulfonamido)-3-[(1S)-1-(4-fluorophenyl)ethoxy]phenyl]-1-methyl-1H-pyrazolo[4,3-c]pyridin-7-yl}oct-7-yn-1-yl)-2-{[2-(2,6-dioxopiperidin-3-yl)-1,3-dioxo-2,3-dihydro-1H-isoindol-4-yl]oxy}acetamide]	< 1000	> 8.00		
CN[C@@H](C)C(=O)N[C@H](C(=O)N1C[C@H](NC(=O)CCCCCCn2cc(-c3cnc(N)c4c(-c5ccc(NS(=O)(=O)C(F)F)c(O[C@@H](C)c6ccc(F)cc6)c5)nn(C)c34)cn2)C[C@H]1C(=O)Nc1c(F)cccc1F)C(C)(C)C [Compound 1101, (2S)-4-[7-(4-{4-amino-3-[4-(difluoromethanesulfonamido)-3-[(1S)-1-(4-fluorophenyl)ethoxy]phenyl]-1-methyl-1H-pyrazolo[4,3-c]pyridin-7-yl}-1H-pyrazol-1-yl)heptanamido]-N-(2,6-difluorophenyl)-1-[(2S)-3,3-dimethyl-2-[(2S)-2-(methylamino)propanamido]butanoyl]pyrrolidine-2-carboxamide]	< 1000	> 8.00		
C[C@H](Oc1cc(-c2nn(C)c3c(-c4cnn(C5CCN(C(=O)CC6CCN(c7cccc8c7C(=O)N(C7CCC(=O)NC7=O)C8=O)C6)CC5)c4)cnc(N)c23)ccc1NS(=O)(=O)C(F)F)c1ccc(F)cc1 (stereo partly drawn) [Compound 1053, N-[4-(4-amino-7-{1-[1-(2-{1-[2-(2,6-dioxopiperidin-3-yl)-1,3-dioxo-2,3-dihydro-1H-isoindol-4-yl]pyrrolidin-3-yl}acetyl)piperidin-4-yl]-1H-pyrazol-4-yl}-1-methyl-1H-pyrazolo [4,3-c]pyridin-3-yl)-2-[(1S)-1-(4-fluorophenyl)ethoxy]phenyl]-1,1-difluoromethanesulfonamide]		6.00 to 8.00	> 6.00	< 1000
(2S,4R)-1-[(2S)-2-(9-{4-amino-3-[4-(difluoromethanesulfonamido)-3-fluorophenyl]-1-methyl-1H-pyrazolo[4,3-c]pyridin-7-yl}non-8-ynamido)-3,3-dimethylbutanoyl]-4-hydroxy-N-{[4-(4-methyl-1,3-thiazol-5-yl)phenyl]methyl}pyrrolidine-2-carboxamide [Compound 1046]	< 1000			
C[C@H](Oc1cc(-c2nn(C)c3c(-c4cnn(C5CCN(C(=O)[C@H]6C[C@H](Nc7cccc8c7C(=O)N(C7CCC(=O)NC7=O)C8=O)C6)C(C)(C)C5)c4)cnc(N)c23)ccc1NS(=O)(=O)C(F)F)c1ccc(F)cc1 (stereo partly drawn) [Compound 1116, N-{4-[4-amino-7-(1-{2,2-dimethyl-1-[(trans)-3-{[2-(2,6-dioxopiperidin-3-yl)-1,3-dioxo-2,3-dihydro-1H-isoindol-4-yl]amino}cyclobutanecarbonyl]piperidin-4-yl}-1H-pyrazol-4-yl)-1-methyl-1H-pyrazolo[4,3-c]pyridin-3-yl]-2-[(1S)-1-(4-fluorophenyl)ethoxy]phenyl}-1,1-difluoromethanesulfonamide]		> 8.00	5.00 to 6.00	< 1000
C[C@H](Oc1cc(-c2nn(C)c3c(-c4cnn(C5CCN(C(=O)[C@H]6C[C@H](N(C)c7ccc8c(c7)C(=O)N(C7CCC(=O)NC7=O)C8=O)C6)CC5)c4)cnc(N)c23)ccc1NS(=O)(=O)C(F)F)c1ccc(F)cc1 (stereo partly drawn) [Compound 1106, N-{4-[4-amino-1-methyl-7-(1-{1-[(trans)-3-{[2-(2,6-dioxopiperidin-3-yl)-1,3-dioxo-2,3-dihydro-1H-isoindol-5-yl](methyl)amino}cyclobutanecarbonyl]piperidin-4-yl}-1H-pyrazol-4-yl)-1H-pyrazolo[4,3-c]pyridin-3-yl]-2-[(1S)-1-(4-fluorophenyl)ethoxy]phenyl}-1,1-difluoromethanesulfonamide]		> 8.00	> 6.00	< 1000
C[C@H](Oc1cc(-c2nn(C)c3c(-c4cnn(C5CCN(C(=O)N6CCN(c7cccc8c7C(=O)N(C7CCC(=O)NC7=O)C8=O)CC6)CC5)c4)cnc(N)c23)ccc1NS(=O)(=O)C(F)F)c1ccc(F)cc1 (stereo partly drawn) [Compound 1103, N-(4-{4-amino-7-[1-(1-{4-[2-(2,6-dioxopiperidin-3-yl)-1,3-dioxo-2,3-dihydro-1H-isoindol-4-yl]piperazine-1-carbonyl}piperidin-4-yl)-1H-pyrazol-4-yl]-1-methyl-1H-pyrazolo[4,3-c]pyridin-3-yl}-2-[(1S)-1-(4-fluorophenyl)ethoxy]phenyl)-1,1-difluoromethanesulfonamide]		> 8.00	> 6.00	< 1000
C[C@H](Oc1cc(-c2nn(C)c3c(-c4cnn(C5CCN(C(=O)[C@]6(F)C[C@H](Nc7cccc8c7C(=O)N(C7CCC(=O)NC7=O)C8=O)C6)CC5)c4)cnc(N)c23)ccc1NS(=O)(=O)C(F)F)c1ccc(F)cc1 (stereo partly drawn) [Compound 1110, N-{4-[4-amino-1-methyl-7-(1-{1-[(trans)-3-{[2-(2,6-dioxopiperidin-3-yl)-1,3-dioxo-2,3-dihydro-1H-isoindol-4-yl]amino}-1-fluoro-cyclobutanecarbonyl]piperidin-4-yl}-1H-pyrazol-4-yl)-1H-pyrazolo[4,3-c]pyridin-3-yl]-2-[(1S)-1-(4-fluorophenyl)ethoxy]phenyl}-1,1-difluoromethanesulfonamide]		> 8.00	> 6.00	< 1000
